One assay has as its target T1, FPR1 (Homo sapiens, UniProt P21462).
T1 construct: expressed in transfected cells
T1 sequence (P21462 1-350): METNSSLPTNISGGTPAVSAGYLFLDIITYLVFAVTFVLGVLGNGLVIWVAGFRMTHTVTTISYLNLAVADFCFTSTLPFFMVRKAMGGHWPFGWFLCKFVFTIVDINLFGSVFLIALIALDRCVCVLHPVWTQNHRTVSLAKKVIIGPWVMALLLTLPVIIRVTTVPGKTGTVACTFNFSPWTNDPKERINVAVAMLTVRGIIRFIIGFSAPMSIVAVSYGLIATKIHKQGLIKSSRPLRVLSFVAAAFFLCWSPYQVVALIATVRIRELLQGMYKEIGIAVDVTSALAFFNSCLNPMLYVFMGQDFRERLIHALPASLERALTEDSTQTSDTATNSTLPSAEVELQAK
The assay is described as follows: compound-induced calcium activity on FLIPR Tetra, CHO-Gα16 cells stably expressing FPR1. The format is cell-based. To be noted: for EC50 / FPR1 Ga16-CHO (% eff): CHO-Gα16 cells stably expressing FPR1, calcium activity; for EC50: tested at 0.61 to 10,000 nM, read-out: FPR1 Ga16-CHO EC50; for FPR1 Ga16-CHO (% eff): efficacy value in parentheses; for Ratio FPR2:FPR1 (EC50): ratio of EC50 for agonizing FPR2 to EC50 for agonizing FPR1 (selectivity for FPR1). The method, then:
(§1) CHO-Gα16 cells stably expressing FPR1 or FPR2 were cultured in (Ham's F12 nutrient media, 10% fetal bovine serum, 1% PSA (penicillin, streptomycin, amphotericin B antiobiotic/antimycotic), 400 μg/ml geneticin and 50 μg/ml hygromycin). In general, the day before the experiment, 18,000 cells/well were plated in a 384-well clear bottom poly-D-lysine coated plate. The following day the screening compound-induced calcium activity was assayed on the FLIPR^Tetra. The drug plates were prepared in 384-well microplates using the EP3 and the MultiPROBE robotic liquid handling systems. Compounds were tested at concentrations ranging from 0.61 to 10,000 nM. Results are expressed as EC50 (nM) and efficacy values.

A further assay deals with T2, FPR2 (Homo sapiens, UniProt P25090).
T2 construct: expressed in transfected cells
T2 sequence (P25090 1-351): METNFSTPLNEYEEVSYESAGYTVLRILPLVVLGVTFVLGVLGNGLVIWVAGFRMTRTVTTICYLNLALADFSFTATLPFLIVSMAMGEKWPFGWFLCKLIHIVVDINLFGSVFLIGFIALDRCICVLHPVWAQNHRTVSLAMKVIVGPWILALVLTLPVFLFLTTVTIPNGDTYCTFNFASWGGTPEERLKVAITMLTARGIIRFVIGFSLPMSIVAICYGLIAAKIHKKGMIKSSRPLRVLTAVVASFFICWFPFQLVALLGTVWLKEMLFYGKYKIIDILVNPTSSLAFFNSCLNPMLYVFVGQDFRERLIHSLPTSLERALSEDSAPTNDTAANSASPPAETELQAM
The experiment in a line: compound-induced calcium activity on FLIPR Tetra, CHO-Gα16 cells stably expressing FPR2. The format is cell-based. Also on record: FPR2 Ga16-CHO (% eff): unit not given here. The note with it: for FPR2 Ga16-CHO (% eff): efficacy value in parentheses; for EC50: tested at 0.61 to 10,000 nM, read-out: FPR2 Ga16-CHO EC50. As to the method:
as §1

A word on the EC50: it is the concentration that produces a half-maximal response. Consider `CC(C)CC(C(=O)OC(C)(C)C)C(C)NC(=O)Nc1ccc(Br)cc1` (single isomer, unassigned) [Compound 101, tert-butyl 2-(1-(3-(4-bromophenyl)ureido)ethyl)-4-methylpentanoate], for which, at FPR1, the 50% effective concentration (EC50) was ≥ 10000 nM, the FPR1 Ga16-CHO (% eff) amounted to 66% and the “Ratio FPR2:FPR1 (EC50)” value came out at 1. At FPR2, the “FPR2 Ga16-CHO (% eff)” value is listed as 0.73 and the half-maximal effective concentration (EC50) was ≥ 10000 nM.
For the compound `CC(C)CC(C(=O)O)C(C)NC(=O)Nc1ccc(Br)cc1` (single isomer, unassigned) [Compound 106, 2-(1-(3-(4-bromophenyl)ureido)ethyl)-4-methylpentanoic acid], on FPR1, the EC50 turned out to be 98 nM, the FPR1 Ga16-CHO (% eff) is 91% and the “Ratio FPR2:FPR1 (EC50)” value came out at 101. Also, at FPR2, the “FPR2 Ga16-CHO (% eff)” value was determined as 0.75 and the EC50 came out at 9940 nM.
Turning to `CC(C)CC(C(=O)O)C(C)NC(=O)Nc1ccc(Br)cc1` (racemic) [Compound 103, 2-(1-(3-(4-bromophenyl)ureido)ethyl)-4-methylpentanoic acid], on FPR1, the FPR1 Ga16-CHO (% eff) came to 97% and the “Ratio FPR2:FPR1 (EC50)” value was 79. Further, the “FPR2 Ga16-CHO (% eff)” value at FPR2 turned out to be 1.04.
Turning to `CC(C)CC(C(=O)O)C(C)NC(=O)Nc1ccc(Br)cc1` (single isomer, unassigned) [Compound 107, 2-(1-(3-(4-bromophenyl)ureido)ethyl)-4-methylpentanoic acid], at FPR1, the EC50 is 1.7 nM, the FPR1 Ga16-CHO (% eff) came out at 93% and the “Ratio FPR2:FPR1 (EC50)” value turned out to be 15. Further, at FPR2, the “FPR2 Ga16-CHO (% eff)” value is reported as 0.96 and the EC50 is 25 nM.
`CC(C)CC(C(=O)O)C(C)NC(=O)Nc1ccc(Br)cc1` (single isomer, unassigned) [Compound 103, 2-(1-(3-(4-bromophenyl)ureido)ethyl)-4-methylpentanoic acid]: the EC50 at FPR1 is 0.52 nM; at FPR2, 41 nM.
On the same counts, the results for `CC(C)CC(C(=O)O)C(C)NC(=O)Nc1ccc(Br)cc1` (single isomer, unassigned) [Compound 102, 2-(1-(3-(4-bromophenyl)ureido)ethyl)-4-methylpentanoic acid] are 48 nM and 1050 nM.
In the case of `CC(C)CC(C(=O)O)C(C)NC(=O)Nc1ccc(Br)cc1` (single isomer, unassigned) [Compound 105, 2-(1-(3-(4-bromophenyl)ureido)ethyl)-4-methylpentanoic acid], on FPR1, the half-maximal effective concentration (EC50) was 13 nM, the FPR1 Ga16-CHO (% eff) is 103% and the “Ratio FPR2:FPR1 (EC50)” value amounted to 249. Further, on FPR2, the “FPR2 Ga16-CHO (% eff)” value came out at 0.56 and the 50% effective concentration (EC50) stood at 3240 nM.
Turning to `CC(C)CC(C(=O)O)C(C)NC(=O)Nc1ccc(Br)cc1` (racemic) [Compound 102, 2-(1-(3-(4-bromophenyl)ureido)ethyl)-4-methylpentanoic acid], on FPR1, the FPR1 Ga16-CHO (% eff) was found to be 92% and the “Ratio FPR2:FPR1 (EC50)” value amounted to 22. The “FPR2 Ga16-CHO (% eff)” value on FPR2 was determined as 0.63.
For the compound `CC(C)CC(C(=O)O)C(C)NC(=O)Nc1ccc(Br)cc1` (single isomer, unassigned) [Compound 104, 2-(1-(3-(4-bromophenyl)ureido)ethyl)-4-methylpentanoic acid], on FPR1, the concentration giving a half-maximal response (EC50) was found to be 51 nM, the FPR1 Ga16-CHO (% eff) was found to be 94% and the “Ratio FPR2:FPR1 (EC50)” value is reported as 17. Further, on FPR2, the “FPR2 Ga16-CHO (% eff)” value turned out to be 0.89 and the concentration for a half-maximal effect (EC50) amounted to 855 nM.
On the same counts, the results for `CC(C)CC(C(=O)OC(C)(C)C)C(C)NC(=O)Nc1ccc(Br)cc1` (single isomer, unassigned) [Compound 100, tert-butyl 2-(1-(3-(4-bromophenyl)ureido)ethyl)-4-methylpentanoate] are 1420 nM, 80%, 2.6, 0.75 and 3760 nM.

Values taken from patent publication US11117860B2, “Phenyl urea derivatives as n-formyl peptide receptor modulators” (Allergan, Inc., priority 2016, dated 2021).
